Here are results for 29 molecules from patent US20230293518A1 (Edgewise Therapeutics, Inc., priority 2020, published 2023).

Where only a bound is given, the exact number is not on record here.

One assay addresses skeletal myofibrils (myosin ATPase). The assay can be described thus: Skeletal Myofibril ATPase Assay. It is filed as biochemical. The conditions noted are these: Table 4A. As for the experimental part:
Example 12. Skeletal Myofibril ATPase Assay
Overview: Myosin ATPase activity is assessed by using a coupled reaction system, in which ADP generated by the myosin ATPase function is coupled to the disappearance of NADH through the pyruvate kinase/lactate dehydrogenase (PK-LDH) system. ATPase activity produces ADP, which is used as a substrate for PK to produce pyruvate and regenerate ATP. The pyruvate is then used as a substrate by LDH to oxidize NADH to NAD+. The rate of the reaction is monitored through the time-dependent disappearance of NADH using absorbance at 340 nm. Inhibition of ATPase activity by the assayed compounds is indicated by a reduced rate of NADH loss, relative to vehicle-treated controls, over the experimental time window. To assess the selectivity of the assayed compounds for skeletal myofibrils, the compounds are counter-screened in cardiac myofibrils.
Materials: The following stock solutions and reagents were used in the Skeletal Myofibril ATPase Assay:
Stock Solutions of pCa buffer. Combine PIPES, CaCl2, and EGTA solutions with 70 mL of water. Adjust pH to 7.0 and bring final volume to 100 mL.
Buffer A & Buffer B. Buffers were stored on ice until use.
Skeletal Myofibril ATPase Assay Procedure: BSA, ATP, NADH, PEP, and DTT solutions were thawed at room temperature, then transferred to ice. Pellet-frozen myofibrils were transferred with approximately twice the required volume into a sufficiently large tube and capped. Myofibrils were thawed by rolling in a water bath for approximately 15 min at room temperature and cooled on ice. Buffers A and B were prepared by adjusting volumes as necessary for required number of wells and stored on ice. 0.5 μL of the compounds to be assayed were added into wells. 25 μL of Buffer A was dispensed into the wells, followed by 25 μL of Buffer B. The wells were measured for absorbance at 340 nm, using a kinetic protocol in which the wells are read every 1.5-2 min for 45 min. The slope of the data was approximated by subtracting the minimum absorbance value from the maximum value for each well. This was accomplished either in the SoftMax Pro software or in a spreadsheet program such as Excel. Using GraphPad Prism 8.0, the data was normalized by assigning a value of 100% to the 1% DMSO vehicle wells. Typically, a normalized 0% value was simply assigned to a (Max−Min) value of 0. The normalized data was fit to a Four Parameter Logistic sigmoidal equation, constraining the bottom to be 0 or greater. Compounds of Table 1, 2, and 3 were tested and results of the assay appear in Tables 4a-4c. A=IC50 is less than or equal to 10 μM; B═IC50 is greater than 10 μM and less than 100 μM; C═IC50 is greater than 100 μM.
Regarding `CCNC(=O)Cn1nc(-c2ccc(OCC3(F)COC3)nc2)ccc1=O` [Compound I-23, N-ethyl-2-(3-(6-((3-fluorooxetan-3-yl)methoxy)pyridin-3-yl)-6-oxopyridazin-1(6H)-yl)acetamide], the IC50 (as a rule, the concentration that gives 50% inhibition) was in the range of 10 to 100 µM.

`O=C(Cn1nc(-c2cnc(OCCOC(F)(F)F)nc2)ccc1=O)NC1CCC1` [Compound I-72, N-cyclobutyl-2-(6-oxo-3-(2-(2-(trifluoromethoxy)ethoxy)pyrimidin-5-yl)pyridazin-1(6H)-yl)acetamide] gave an IC50 below 10 µM.

Take `CCNC(=O)Cn1nc(-c2ccc(OC(F)F)nc2)ccc1=O` [Compound I-7, 2-[3-[6-(difluoromethoxy)pyridin-3-yl]-6-oxo-1,6-dihydropyridazin-1-yl]-N-ethylacetamide]: the IC50 is below 10 µM.

As to `CCNC(=O)Cn1nc(-c2cnc(OCC3CC(F)(F)C3)nc2)ccc1=O` [Compound I-77, 2-(3-(2-((3,3-difluorocyclobutyl)methoxy)pyrimidin-5-yl)-6-oxopyridazin-1(6H)-yl)-N-ethylacetamide], the half-maximal inhibitory concentration (IC50) lay in the range of 10 to 100 µM.

Take `CCNC(=O)Cn1nc(-c2ccc(NC3COC3)nc2)ccc1=O` [Compound I-44, N-ethyl-2-(3-(6-(oxetan-3-ylamino)pyridin-3-yl)-6-oxopyridazin-1(6H)-yl)acetamide]: the IC50 is below 10 µM.

For the molecule `CCNC(=O)Cn1nc(-c2cnc(NC34CC(F)(C3)C4)nc2)ccc1=O` [Compound I-57, N-ethyl-2-(3-(2-((3-fluorobicyclo[1.1.1]pentan-1-yl)amino)pyrimidin-5-yl)-6-oxopyridazin-1(6H)-yl)acetamide], the IC50 was below 10 µM.

`CCNC(=O)Cn1nc(-c2cnc(NC34CC(O)(C3)C4)nc2)ccc1=O` [Compound I-42, N-ethyl-2-(3-(2-((3-hydroxybicyclo[1.1.1]pentan-1-yl)amino)pyrimidin-5-yl)-6-oxopyridazin-1(6H)-yl)acetamide]: the IC50 fell in the range of 10 to 100 µM.

For the molecule `O=C(Cn1nc(-c2ccc(OCC(F)(F)F)nc2)ccc1=O)NC1CCC1` [Compound I-56, N-cyclobutyl-2-(6-oxo-3-(6-(2,2,2-trifluoroethoxy)pyridin-3-yl)pyridazin-1(6H)-yl)acetamide], the 50% inhibitory concentration (IC50) was below 10 µM.

`CCNC(=O)Cn1nc(-c2ccc(NC34CC(CO)(C3)C4)nc2)ccc1=O` [Compound I-58, N-ethyl-2-(3-(6-((3-(hydroxymethyl)bicyclo[1.1.1]pentan-1-yl)amino)pyridin-3-yl)-6-oxopyridazin-1(6H)-yl)acetamide] yielded an IC50 of 10 to 100 µM.

For `O=C(Cn1nc(-c2ccc(NC34CC(C3)C4)nc2)ccc1=O)N1CCC1` [Compound I-39, 2-(2-(azetidin-1-yl)-2-oxoethyl)-6-(6-(bicyclo[1.1.1]pentan-1-ylamino)pyridin-3-yl)pyridazin-3(2H)-one], the IC50 fell in the range of 10 to 100 µM.

The molecule `CCC(C)(C)NC(=O)Cn1nc(-c2ccc(OC(F)F)nc2)ccc1=O` [Compound I-20, 2-(3-(6-(difluoromethoxy)pyridin-3-yl)-6-oxopyridazin-1(6H)-yl)-N-(tert-pentyl)acetamide] returned an IC50 of 10 to 100 µM.

`O=C(Cn1nc(-c2ccc(NC34CC(C3)C4)nc2)ccc1=O)NC1CCC1` [Compound I-54, 2-(3-(6-(bicyclo[1.1.1]pentan-1-ylamino)pyridin-3-yl)-6-oxopyridazin-1(6H)-yl)-N-cyclobutylacetamide] came in with an IC50 below 10 µM.

The assay is the same for the next values; noted with them: Table 4B.
Take `O=C(Cn1nc(-c2ccc(OCC(F)(F)F)cc2)ccc1=O)N1CC(c2ccccc2)C1` [II-22, 2-(2-oxo-2-(3-phenylazetidin-1-yl)ethyl)-6-(4-(2,2,2-trifluoroethoxy)phenyl)pyridazin-3(2H)-one]: the IC50 was below 10 µM.

As to `CC(C)NC(=O)Cn1nc(-c2ccc(OC(F)(F)F)cc2)ccc1=O` [II-4, N-isopropyl-2-(6-oxo-3-(4-(trifluoromethoxy)phenyl)pyridazin-1(6H)-yl)acetamide], the IC50 was below 10 µM.

`O=C(Cn1nc(-c2ccc(OC(F)F)cc2)ccc1=O)NCC1CCC1` [II-18, N-(cyclobutylmethyl)-2-(3-(4-(difluoromethoxy)phenyl)-6-oxopyridazin-1(6H)-yl)acetamide]: the IC50 lay within 10 to 100 µM.

For the molecule `CCNC(=O)Cn1nc(-c2ccc(OCC(F)F)cc2)ccc1=O` [II-7, 2-(3-(4-(2,2-difluoroethoxy)phenyl)-6-oxopyridazin-1(6H)-yl)-N-ethylacetamide], the IC50 was below 10 µM.

With `CC(=O)Nc1ccc(-c2ccc(=O)n(CC(=O)NCc3ccccc3Cl)n2)cc1` [II-8, 2-(3-(4-acetamidophenyl)-6-oxopyridazin-1(6H)-yl)-N-(2-chlorobenzyl) acetamide], the IC50 was below 10 µM.

Still in this assay, the particulars now being: Table 4C.
The molecule `CCc1ccc(-c2ccc(=O)n(CC(=O)Nc3ccc4c(c3)OCCO4)n2)cc1` [IIIb-44, N-(2,3-dihydrobenzo[b][1,4]dioxin-6-yl)-2-(3-(4-ethylphenyl)-6-oxopyridazin-1(6H)-yl)acetamide] gave an IC50 above 100 µM.

On to `CC(CCNC(=O)Cn1nc(-c2ccccc2)ccc1=O)c1ccccc1` (centres unmarked) [IIIc-53, 2-(6-oxo-3-phenylpyridazin-1(6H)-yl)-N-(3-phenylbutyl)acetamide], for which the IC50 fell in the range of 10 to 100 µM.

In turn, `COc1ccc(-c2ccc(=O)n(CC(=O)NCCC3=CCCCC3)n2)c(F)c1` [IIIb-7, N-(2-(cyclohex-1-en-1-yl)ethyl)-2-(3-(2-fluoro-4-methoxyphenyl)-6-oxopyridazin-1(6H)-yl)acetamide] displayed an IC50 below 10 µM.

As for `COc1ccc(-c2ccc(=O)n(CC(=O)NCc3cnccn3)n2)cc1` [IIIa-28, 2-(3-(4-methoxyphenyl)-6-oxopyridazin-1(6H)-yl)-N-(pyrazin-2-ylmethyl) acetamide], the IC50 is above 100 µM.

Molecule `COc1ccc(-c2ccc(=O)n(CC(=O)NCc3cc(Cl)ccc3Cl)n2)cc1` came in with an IC50 below 10 µM.

In the case of `CC(C)Oc1ccc(-c2ccc(=O)n(CC(=O)NCc3ccccc3Cl)n2)cc1` [IIIa-2, N-(2-chlorobenzyl)-2-(3-(4-isopropoxyphenyl)-6-oxopyridazin-1(6H)-yl)acetamide], the IC50 is below 10 µM.

`COc1ccc(-c2ccc(=O)n(CC(=O)NCc3cnoc3)n2)cc1` [IIIa-31, N-(isoxazol-4-ylmethyl)-2-(3-(4-methoxyphenyl)-6-oxopyridazin-1(6H)-yl)acetamide] had an IC50 above 100 µM.

`O=C(Cn1nc(-c2ccccc2)ccc1=O)NC1(c2ccccc2)CCC1` [IIIc-51, 2-(6-oxo-3-phenylpyridazin-1(6H)-yl)-N-(1-phenylcyclobutyl)acetamide] gave an IC50 below 10 µM.

As to `CC[C@H](C)NC(=O)Cn1nc(-c2ccc(Cl)cc2)ccc1=O` [IIIc-30, (S)-N-(sec-butyl)-2-(3-(4-chlorophenyl)-6-oxopyridazin-1(6H)-yl)acetamide], the IC50 lay in the range of 10 to 100 µM.

On to `O=C(Cn1nc(-c2ccc(Cl)cc2)ccc1=O)Nc1cccc2[nH]ccc12` [IIIc-19, 2-(3-(4-chlorophenyl)-6-oxopyridazin-1(6H)-yl)-N-(1H-indol-4-yl)acetamide], for which the IC50 was below 10 µM.

In turn, `COc1ccc(-c2ccc(=O)n(CC(=O)NCc3cccc(F)c3)n2)c(F)c1` [IIIb-55, 2-(3-(2-fluoro-4-methoxyphenyl)-6-oxopyridazin-1(6H)-yl)-N-(3-fluorobenzyl)acetamide] yielded an IC50 above 100 µM.

With `COc1ccc(-c2ccc(=O)n(CC(=O)NCc3ccc(Cl)cc3)n2)cc1` [IIIb-31, N-(4-chlorobenzyl)-2-(3-(4-methoxyphenyl)-6-oxopyridazin-1(6H)-yl)acetamide], the IC50 was 10 to 100 µM.
